Assay results published in patent US6239171A, “Tocotrienols and tocotrienol-like compounds and methods for their use” (Lipogenics, Inc., priority 1998, dated 2001).

How the values were obtained:
Format in all cases: in vivo, chicken
HMG-CoA reductase = biological target: T1, HMG-CoA reductase (Homo sapiens, UniProt P04035); test: Hepatic HMG-CoA reductase activity in chickens fed supplemented diets; details: control diet + 100 ppm, 4 weeks
T1 construct: hepatocytes isolated from livers of 8-week old female chickens; endogenous in cells; host or cells: primary chicken hepatocytes
T1 sequence (P04035 1-888): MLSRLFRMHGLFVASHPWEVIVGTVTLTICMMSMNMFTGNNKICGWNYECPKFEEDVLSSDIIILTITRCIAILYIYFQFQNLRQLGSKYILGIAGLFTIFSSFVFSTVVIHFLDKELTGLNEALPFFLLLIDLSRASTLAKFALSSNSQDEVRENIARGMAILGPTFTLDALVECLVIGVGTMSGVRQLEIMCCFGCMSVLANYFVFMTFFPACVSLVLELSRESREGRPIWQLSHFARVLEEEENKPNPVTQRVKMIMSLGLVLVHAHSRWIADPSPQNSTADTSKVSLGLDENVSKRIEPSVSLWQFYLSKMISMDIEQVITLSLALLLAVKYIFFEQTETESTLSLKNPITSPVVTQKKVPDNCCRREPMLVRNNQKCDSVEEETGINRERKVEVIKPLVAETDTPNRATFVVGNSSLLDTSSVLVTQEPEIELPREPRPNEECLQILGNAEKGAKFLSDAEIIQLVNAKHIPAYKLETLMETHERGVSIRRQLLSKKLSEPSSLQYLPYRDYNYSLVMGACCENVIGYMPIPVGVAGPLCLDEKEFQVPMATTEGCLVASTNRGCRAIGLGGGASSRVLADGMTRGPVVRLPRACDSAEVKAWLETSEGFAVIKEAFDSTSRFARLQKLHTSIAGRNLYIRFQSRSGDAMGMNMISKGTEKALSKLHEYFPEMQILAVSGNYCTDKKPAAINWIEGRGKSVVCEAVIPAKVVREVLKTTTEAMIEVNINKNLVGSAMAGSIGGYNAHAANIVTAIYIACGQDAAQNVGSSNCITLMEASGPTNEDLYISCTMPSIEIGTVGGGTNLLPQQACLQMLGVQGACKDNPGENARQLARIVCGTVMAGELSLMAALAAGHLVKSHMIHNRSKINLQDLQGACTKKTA
Protocol: (§1) This example measured the effects of the TRF and its components on the hepatic enzymatic activity of HMG-CoA reductase and cholesterol 7α-hydroxylase. […] The amount of feed consumed ranged from 11.19-11.60 g per chicken and the feeding period was 4 weeks. The birds were fasted for a period of 36 hours and refed for 48 hours prior to sacrifice (at 0800 hours).

chickens [1] = test: Antibody titers to sheep red blood cells in chickens; details: control diet + 100 ppm, 4 weeks, sheep red blood cells i.p.
Protocol: The model for this study was 6-week old female white leghorn chickens. Each group of 12 chickens was fed an unsupplemented chicken diet or a control diet supplemented with 50 ppm of a tocotrienol or 100 ppm of a commercially available hypercholesterolemic agent (Geraniol or Lovastatin). […] The chickens were fed over a period of 4 weeks, then the blood was drawn. The antibody response was determined by injecting the chickens i.p. with 0.5 ml of a 5% suspension of sheep red blood cells (RBCs) in PBS (v/v) which were previously washed three times. […] Relative IgG levels were determined by using 2-mercaptoethanol preincubation for 30 min. The relative IgM levels were calculated by subtracting the IgG antibody levels from total antibody levels. All antibody levels are expressed as the log base 2 of the highest titer that was needed to hemagglutinate an equal volume of 0.5% RBC suspension.

[2] = system: cholesterol 7α-hydroxylase; test: Hepatic cholesterol 7α-hydroxylase activity in chickens fed supplemented diets; details: control diet + 100 ppm, 4 weeks
Protocol: as §1

chickens [3] = test: Plasma thromboxane B2 and platelet factor 4 in chickens fed supplemented diets; details: control diet + 100 ppm, 4 weeks
From the text: We next measured the effects of TRF and its components on serum levels of apolipoprotein (a)1, apolipoprotein B, triglycerides and glucose and the plasma levels of thromboxane B2 and platelet factor 4.

chickens [4] = test: Serum cholesterol, apolipoproteins, triglycerides and glucose in chickens fed supplemented diets; details: 4 weeks; for increase in the HDL-/LDL-cholesterol ratio / reduction of serum cholesterol: 100 ppm in diet; for APO A1, percentage of control / APO A1 in serum / APO B in serum / APO B, percentage of control / DL-Cholesterol/Total Cholesterol / DL-Cholesterol/Total Cholesterol, percentage of control / Glucose in serum / Glucose, percentage of control / HDL-Cholesterol in serum / HDL-Cholesterol, percentage of control / HDL-Cholesterol/LDL-Cholesterol / HDL-Cholesterol/LDL-Cholesterol, percentage of control / LDL-Cholesterol in serum / LDL-Cholesterol, percentage of control / Total Cholesterol in serum / Total Cholesterol, percentage of control / Triglycerides in serum / Triglycerides, percentage of control: control diet + 100 ppm
From the text: All assays conducted on chicken or swine serum were done following the protocols described in A. A. Qureshi et al., "Lowering Of Serum Cholesterol In Hypercholesterolemic Humans By Tocotrienols" (Palmvitee), Am. J. Clin. Nutr., 53, pp. 1021S-26S (1991). All enzymatic assays were done following the protocols described in A. A. Qureshi et al., "Effects of Cereals and Culture Filtrate of Trichoderma viride on Lipid Metabolism of Swine", Lipids, 17, pp. 924 (1982). Plasma insulin, glucagon and TNF levels were measured using radioinnumoassay kits from Ventrex Laboratories, Inc. (Portland, Me.), ICN Biomedicals, Inc. (Costa Mesa, Calif.) and Genzyme Corp. (Cambridge, Mass.), respectively. […]
Each group of 6 chickens (6-week old female while leghorn) was administered the chick mash diet described in Example 5, supplemented with one of three different amounts of waxes (sterols), 50 ppm of TRF (prepared as in Example 2) or 5% equivalent of the methanol insoluble fraction Louisiana rice bran oil. […] The birds were fasted for a period of 14 hours prior to sacrifice (at 0800 hours). […]

## CC(C)=CCC/C(C)=C/CO [Geraniol]
HMG-CoA reductase
  HMG-CoA Reductase, percentage of control: 87.65%
Chickens [1]
  IgG antibody titers in serum: 1.00 ± 0.00 Log 2
  IgM antibody titers in serum: 5.42 Log 2
  Total Ab titers in serum: 5.60 ± 2.11 Log 2
[2]
  Cholesterol 7α-Hydroxylase, percentage of control: 100.59%
  Cholesterol 7α-hydroxylase: 10.28 nmol/min/mg
Chickens [3]
  Platelet Factor 4: 12.38 ng/mL
  Platelet Factor 4, percentage of control: 94.57%
  Thromboxane B2: 25.46 pg/mL
  Thromboxane B2, percentage of control: 98.53%
Chickens [4]
  increase in the HDL-/LDL-cholesterol ratio: ≤ 31.5%
  reduction of serum cholesterol: 14%
  APO A1, percentage of control: 98.58%
  APO A1 in serum: 138.40 mg/100 ml
  APO B in serum: 29.20 mg/100 ml
  APO B, percentage of control: 88.22%
  DL-Cholesterol/Total Cholesterol: 0.65
  DL-Cholesterol/Total Cholesterol, percentage of control: 110.10%
  Glucose in serum: 227.60 mg/100 ml
  Glucose, percentage of control: 101.47%
  HDL-Cholesterol in serum: 82.28 ± 1.06 mg/dL
  HDL-Cholesterol, percentage of control: 98.35%
  HDL-Cholesterol/LDL-Cholesterol: 2.00
  HDL-Cholesterol/LDL-Cholesterol, percentage of control: 131.50%
  LDL-Cholesterol in serum: 41.07 ± 1.13 mg/dL
  LDL-Cholesterol, percentage of control: 96.30%
  Total Cholesterol in serum: 122.53 ± 1.37 mg/dL
  Total Cholesterol, percentage of control: 85.82%
  Triglycerides in serum: 71.29 mg/100 ml
  Triglycerides, percentage of control: 96.30%

## CC[C@H](C)C(=O)O[C@H]1C[C@@H](C)C=C2C=C[C@H](C)[C@H](CC[C@@H]3C[C@@H](O)CC(=O)O3)[C@H]21 [Lovastatin]
Chickens [1]
  IgG antibody titers in serum: 1.00 ± 0.00 Log 2
  IgM antibody titers in serum: 5.90 Log 2
  Total Ab titers in serum: 6.33 ± 1.44 Log 2
[2]
  Cholesterol 7α-Hydroxylase, percentage of control: 110.96%
  Cholesterol 7α-hydroxylase: 11.34 nmol/min/mg
Chickens [3]
  Platelet Factor 4: 12.24 ng/mL
  Platelet Factor 4, percentage of control: 93.51%
  Thromboxane B2: 24.89 pg/mL
  Thromboxane B2, percentage of control: 96.32%
Chickens [4]
  increase in the HDL-/LDL-cholesterol ratio: ≤ 31.5%
  reduction of serum cholesterol: 10%
  APO A1, percentage of control: 99.29%
  APO A1 in serum: 139.9 mg/100 ml
  APO B in serum: 25.80 mg/100 ml
  APO B, percentage of control: 77.95%
  DL-Cholesterol/Total Cholesterol: 0.63
  DL-Cholesterol/Total Cholesterol, percentage of control: 108.00%
  Glucose in serum: 220.10 mg/100 ml
  Glucose, percentage of control: 98.13%
  HDL-Cholesterol in serum: 81.38 ± 0.73 mg/dL
  HDL-Cholesterol, percentage of control: 97.28%
  HDL-Cholesterol/LDL-Cholesterol: 1.84
  HDL-Cholesterol/LDL-Cholesterol, percentage of control: 121.40%
  LDL-Cholesterol in serum: 44.12 ± 1.26 mg/dL
  LDL-Cholesterol, percentage of control: 86.51%
  Total Cholesterol in serum: 128.65 ± 1.02 mg/dL
  Total Cholesterol, percentage of control: 90.11%
  Triglycerides in serum: 64.04 mg/100 ml
  Triglycerides, percentage of control: 86.51%
